One test concerns Jurkat T. The experiment in a line: Growth of Jurkat T lymphoma cells. The test is classed as cell-based, human. As for the experimental part: (§1) To determine whether EGCG inhibits DHFR activity in vivo, two human cancer cell, (Caco-2 from colon cancer and Jurkat T a lymphoma cell line) were incubated with various concentrations of EGCG in a standard medium.
Another test deals with S. maltophilia. The experiment in a line: Broth dilution MIC determination. The test is classed as cell-based, Stenotrophomonas maltophilia. As for the experimental part: Eighteen strains of cotrimoxazole susceptible S. maltophilia were collected during the last year at the Hospital Universitario Virgen de la Arrixaca (Murcia, Spain) from clinical isolates. Bacteria were frozen at −70° C. in glycerol-meat medium and inoculated onto Columbia agar (Fluka Chemie GmbH, Madrid, Spain) supplemented with 5% of defibrinated sheep blood 48 and 24 h prior to susceptibility testing.
MICs for the 18 strains were determined by the broth dilution method at a final inoculum of 5×10^5 CFU/ml, according to the guidelines recommended by the NCCLS by using cation-adjusted Mueller-Hinton broth (Fluka). After incubation at 37° C. for 24 h, the lowest concentration of the two-fold serially diluted EGCG at which no visible growth occurred was defined as its MIC.
(In general: Broth dilution looks for growth in wells or tubes with falling amounts of substance.)

In the next test the test system is Caco-2. The experiment in a line: Growth of Caco-2 colon cancer cells. It counts as cell-based, human. As for the experimental part: as §1
[1] abbreviates: standard medium, read-out: IC50 of cell growth.
Where [2] appears, read: eighteen S. maltophilia isolates.

In the case of (−)-epigallocatechin gallate [EGCG], in the test with Jurkat T, the apoptosis result is listed as “induction of apoptosis”; the cell cycle effect entry is given as “G0/G1 phase arrest”; the “effects in HT medium and in the presence of folinic acid or thymine” value was “highly attenuated”. Moreover, the IC50 (usually the concentration that inhibits the measured activity by half) with Jurkat T (setting [1]) was 10 µM. Moreover, the MIC (in general, the smallest concentration in the dilution series that meets the test's criterion for growth inhibition) in the test on S. maltophilia (S. maltophilia strain 1) stood at 64 µg/mL. Besides, in the test on S. maltophilia (setting [2]), the MIC50 (commonly the lowest concentration that inhibits either 50% of growth or 50% of the strains tested, depending on the study) worked out at 32 µg/mL; the MIC90 (usually the lowest concentration that inhibits either 90% of growth or 90% of the strains tested, depending on the study) turned out to be 64 µg/mL; the “MICs (range)” value was in the range of 4 to 256 µg/mL. Besides, in the test on Caco-2, the apoptosis result was “induction of apoptosis”; the cell cycle effect result is “G0/G1 phase arrest”; the “effects in HT medium and in the presence of folinic acid or thymine” value is on record as “highly attenuated”. Further, the IC50 in the test with Caco-2 (setting [1]) was found to be 30 µM.
